Results taken from ChEMBL document CHEMBL1649134, “Occurrence of efflux mechanism and cephalosporinase variant in a population of Enterobacter aerogenes and Klebsiella pneumoniae isolates producing extended-spectrum beta-lactamases” (2009).
In brackets after ≈: the same amount, converted by molar mass.

Columns and labels:
Type in all cases: functional
Klebsiella aerogenes [1] = assay: Antimicrobial activity against multidrug resistant Enterobacter aerogenes isolate 12 by broth dilution method in presence of 26.3 mg/L efflux pump inhibitor phenylalanine-arginine-beta-naphthylamide
Klebsiella aerogenes [2] = assay: Antimicrobial activity against multidrug resistant Enterobacter aerogenes isolate 13 by broth dilution method in presence of 26.3 mg/L efflux pump inhibitor phenylalanine-arginine-beta-naphthylamide
Klebsiella pneumoniae [3] = assay: Antimicrobial activity against multidrug resistant Klebsiella pneumoniae isolate 9 by broth dilution method
Klebsiella aerogenes [4] = assay: Antimicrobial activity against multidrug resistant Enterobacter aerogenes isolate 4 by broth dilution method
Klebsiella pneumoniae [5] = assay: Antimicrobial activity against multidrug resistant Klebsiella pneumoniae isolate 14 by broth dilution method in presence of 26.3 mg/L efflux pump inhibitor phenylalanine-arginine-beta-naphthylamide
Klebsiella aerogenes [6] = assay: Antimicrobial activity against multidrug resistant Enterobacter aerogenes isolate 19 by broth dilution method
Klebsiella aerogenes [7] = assay: Antimicrobial activity against multidrug resistant Enterobacter aerogenes isolate 12 by broth dilution method
Klebsiella aerogenes [8] = assay: Antimicrobial activity against multidrug resistant Enterobacter aerogenes isolate 19 by broth dilution method in presence of 26.3 mg/L efflux pump inhibitor phenylalanine-arginine-beta-naphthylamide
Klebsiella aerogenes [9] = assay: Antimicrobial activity against multidrug resistant Enterobacter aerogenes isolate 17 by broth dilution method in presence of 26.3 mg/L efflux pump inhibitor phenylalanine-arginine-beta-naphthylamide
Klebsiella aerogenes [10] = assay: Antimicrobial activity against multidrug resistant Enterobacter aerogenes isolate 5 by broth dilution method
Klebsiella aerogenes [11] = assay: Antimicrobial activity against multidrug resistant Enterobacter aerogenes isolate 18 by broth dilution method
Klebsiella pneumoniae [12] = assay: Antimicrobial activity against multidrug resistant Klebsiella pneumoniae isolate 13 by broth dilution method in presence of 26.3 mg/L efflux pump inhibitor phenylalanine-arginine-beta-naphthylamide
Klebsiella aerogenes [13] = assay: Antimicrobial activity against multidrug resistant Enterobacter aerogenes isolate 23 by broth dilution method in presence of 26.3 mg/L efflux pump inhibitor phenylalanine-arginine-beta-naphthylamide
Klebsiella aerogenes [14] = assay: Antimicrobial activity against multidrug resistant Enterobacter aerogenes isolate 4 by broth dilution method in presence of 26.3 mg/L efflux pump inhibitor phenylalanine-arginine-beta-naphthylamide
Klebsiella aerogenes [15] = assay: Antimicrobial activity against multidrug resistant Enterobacter aerogenes isolate 25 by broth dilution method in presence of 26.3 mg/L efflux pump inhibitor phenylalanine-arginine-beta-naphthylamide
Klebsiella pneumoniae [16] = assay: Antimicrobial activity against multidrug resistant Klebsiella pneumoniae isolate 11 by broth dilution method in presence of 26.3 mg/L efflux pump inhibitor phenylalanine-arginine-beta-naphthylamide
Klebsiella aerogenes [17] = assay: Antimicrobial activity against multidrug resistant Enterobacter aerogenes isolate 20 by broth dilution method
Klebsiella pneumoniae [18] = assay: Antimicrobial activity against multidrug resistant Klebsiella pneumoniae isolate 16 by broth dilution method in presence of 26.3 mg/L efflux pump inhibitor phenylalanine-arginine-beta-naphthylamide
Klebsiella pneumoniae [19] = assay: Antimicrobial activity against multidrug resistant Klebsiella pneumoniae isolate 9 by broth dilution method in presence of 26.3 mg/L efflux pump inhibitor phenylalanine-arginine-beta-naphthylamide
Klebsiella pneumoniae [20] = assay: Antimicrobial activity against multidrug resistant Klebsiella pneumoniae isolate 15 by broth dilution method in presence of 26.3 mg/L efflux pump inhibitor phenylalanine-arginine-beta-naphthylamide
Klebsiella pneumoniae [21] = assay: Antimicrobial activity against multidrug resistant Klebsiella pneumoniae isolate 4 by broth dilution method in presence of 26.3 mg/L efflux pump inhibitor phenylalanine-arginine-beta-naphthylamide
Klebsiella aerogenes [22] = assay: Antimicrobial activity against multidrug resistant Enterobacter aerogenes isolate 8 by broth dilution method
Klebsiella aerogenes [23] = assay: Antimicrobial activity against multidrug resistant Enterobacter aerogenes isolate 11 by broth dilution method in presence of 26.3 mg/L efflux pump inhibitor phenylalanine-arginine-beta-naphthylamide
Klebsiella pneumoniae [24] = assay: Antimicrobial activity against multidrug resistant Klebsiella pneumoniae isolate 12 by broth dilution method
Klebsiella aerogenes [25] = assay: Antimicrobial activity against multidrug resistant Enterobacter aerogenes isolate 8 by broth dilution method in presence of 26.3 mg/L efflux pump inhibitor phenylalanine-arginine-beta-naphthylamide
Klebsiella aerogenes [26] = assay: Antimicrobial activity against multidrug resistant Enterobacter aerogenes isolate 23 by broth dilution method
Klebsiella aerogenes [27] = assay: Antimicrobial activity against multidrug resistant Enterobacter aerogenes isolate 25 by broth dilution method
Klebsiella aerogenes [28] = assay: Antimicrobial activity against multidrug resistant Enterobacter aerogenes isolate 14 by broth dilution method in presence of 26.3 mg/L efflux pump inhibitor phenylalanine-arginine-beta-naphthylamide
Klebsiella aerogenes [29] = assay: Antimicrobial activity against multidrug resistant Enterobacter aerogenes isolate 3 by broth dilution method in presence of 26.3 mg/L efflux pump inhibitor phenylalanine-arginine-beta-naphthylamide
Klebsiella aerogenes [30] = assay: Antimicrobial activity against multidrug resistant Enterobacter aerogenes isolate 16 by broth dilution method in presence of 26.3 mg/L efflux pump inhibitor phenylalanine-arginine-beta-naphthylamide
Klebsiella aerogenes [31] = assay: Antimicrobial activity against multidrug resistant Enterobacter aerogenes isolate 17 by broth dilution method
Klebsiella pneumoniae [32] = assay: Antimicrobial activity against multidrug resistant Klebsiella pneumoniae isolate 5 by broth dilution method
Klebsiella aerogenes [33] = assay: Antimicrobial activity against multidrug resistant Enterobacter aerogenes isolate 11 by broth dilution method
Klebsiella pneumoniae [34] = assay: Antimicrobial activity against multidrug resistant Klebsiella pneumoniae isolate 16 by broth dilution method
Klebsiella pneumoniae [35] = assay: Antimicrobial activity against multidrug resistant Klebsiella pneumoniae isolate 11 by broth dilution method
Klebsiella aerogenes [36] = assay: Antimicrobial activity against multidrug resistant Enterobacter aerogenes isolate 9 by broth dilution method in presence of 26.3 mg/L efflux pump inhibitor phenylalanine-arginine-beta-naphthylamide
Klebsiella pneumoniae [37] = assay: Antimicrobial activity against multidrug resistant Klebsiella pneumoniae isolate 8 by broth dilution method
Klebsiella pneumoniae [38] = assay: Antimicrobial activity against multidrug resistant Klebsiella pneumoniae isolate 14 by broth dilution method
Klebsiella pneumoniae [39] = assay: Antimicrobial activity against multidrug resistant Klebsiella pneumoniae isolate 8 by broth dilution method in presence of 26.3 mg/L efflux pump inhibitor phenylalanine-arginine-beta-naphthylamide
Klebsiella aerogenes [40] = assay: Antimicrobial activity against multidrug resistant Enterobacter aerogenes ATCC 15038 by broth dilution method in presence of 26.3 mg/L efflux pump inhibitor phenylalanine-arginine-beta-naphthylamide
Klebsiella pneumoniae [41] = assay: Antimicrobial activity against multidrug resistant Klebsiella pneumoniae isolate 4 by broth dilution method
Klebsiella aerogenes [42] = assay: Antimicrobial activity against multidrug resistant Enterobacter aerogenes isolate 7 by broth dilution method in presence of 26.3 mg/L efflux pump inhibitor phenylalanine-arginine-beta-naphthylamide
Klebsiella aerogenes [43] = assay: Antimicrobial activity against multidrug resistant Enterobacter aerogenes isolate 24 by broth dilution method in presence of 26.3 mg/L efflux pump inhibitor phenylalanine-arginine-beta-naphthylamide
Klebsiella pneumoniae [44] = assay: Antimicrobial activity against multidrug resistant Klebsiella pneumoniae isolate 5 by broth dilution method in presence of 26.3 mg/L efflux pump inhibitor phenylalanine-arginine-beta-naphthylamide
Klebsiella aerogenes [45] = assay: Antimicrobial activity against multidrug resistant Enterobacter aerogenes isolate 20 by broth dilution method in presence of 26.3 mg/L efflux pump inhibitor phenylalanine-arginine-beta-naphthylamide
Klebsiella pneumoniae [46] = assay: Antimicrobial activity against multidrug resistant Klebsiella pneumoniae isolate 1 by broth dilution method
Klebsiella aerogenes [47] = assay: Antimicrobial activity against multidrug resistant Enterobacter aerogenes isolate 18 by broth dilution method in presence of 26.3 mg/L efflux pump inhibitor phenylalanine-arginine-beta-naphthylamide
Klebsiella pneumoniae [48] = assay: Antimicrobial activity against multidrug resistant Klebsiella pneumoniae isolate 15 by broth dilution method

CN(C)[C@@H]1C(O)=C(C(N)=O)C(=O)[C@@]2(O)C(O)=C3C(=O)c4c(O)cccc4[C@@](C)(O)[C@H]3C[C@@H]12 [TETRACYCLINE]
MIC (Klebsiella aerogenes [1]): 16 µg/mL
MIC (Klebsiella aerogenes [2]): 8 µg/mL
MIC (Klebsiella pneumoniae [3]): 8 µg/mL (≈ 18 µM)
MIC (Klebsiella aerogenes [4]): 128 µg/mL (≈ 288 µM)
MIC (Klebsiella pneumoniae [5]): 256 µg/mL
MIC (Klebsiella aerogenes [6]): 64 µg/mL (≈ 144 µM)
MIC (Klebsiella aerogenes [7]): 128 µg/mL (≈ 288 µM)
MIC (Klebsiella aerogenes [8]): 8 µg/mL
MIC (Klebsiella aerogenes [9]): 8 µg/mL
MIC (Klebsiella aerogenes [10]): 128 µg/mL (≈ 288 µM)
MIC (Klebsiella aerogenes [11]): 4 µg/mL (≈ 9 µM)
MIC (Klebsiella pneumoniae [12]): 128 µg/mL
MIC (Klebsiella aerogenes [13]): 8 µg/mL
MIC (Klebsiella aerogenes [14]): 8 µg/mL
MIC (Klebsiella aerogenes [15]): 4 µg/mL
MIC (Klebsiella pneumoniae [16]): 4 µg/mL
MIC (Klebsiella aerogenes [17]): 64 µg/mL (≈ 144 µM)
MIC (Klebsiella pneumoniae [18]): 128 µg/mL
MIC (Klebsiella pneumoniae [19]): 128 µg/mL
MIC (Klebsiella pneumoniae [20]): 128 µg/mL
MIC (Klebsiella pneumoniae [21]): 256 µg/mL
MIC (Klebsiella aerogenes [22]): 64 µg/mL (≈ 144 µM)
MIC (Klebsiella aerogenes [23]): 8 µg/mL
MIC (Klebsiella pneumoniae [24]): 2 µg/mL (≈ 4.5 µM)
MIC (Klebsiella aerogenes [25]): 2 µg/mL
MIC (Klebsiella aerogenes [26]): 64 µg/mL (≈ 144 µM)
MIC (Klebsiella aerogenes [27]): 64 µg/mL (≈ 144 µM)
MIC (Klebsiella aerogenes [28]): 16 µg/mL
MIC (Klebsiella aerogenes [29]): 8 µg/mL
MIC (Klebsiella aerogenes [30]): 2 µg/mL
MIC (Klebsiella aerogenes [31]): 64 µg/mL (≈ 144 µM)
MIC (Klebsiella pneumoniae [32]): 2 µg/mL (≈ 4.5 µM)
MIC (Klebsiella aerogenes [33]): 64 µg/mL (≈ 144 µM)
MIC (Klebsiella pneumoniae [34]): 4 µg/mL (≈ 9 µM)
MIC (Klebsiella pneumoniae [35]): 4 µg/mL (≈ 9 µM)
MIC (Klebsiella aerogenes [36]): 4 µg/mL
MIC (Klebsiella pneumoniae [37]): 2 µg/mL (≈ 4.5 µM)
MIC (Klebsiella pneumoniae [38]): 2 µg/mL (≈ 4.5 µM)
MIC (Klebsiella pneumoniae [39]): 128 µg/mL
MIC (Klebsiella aerogenes [40]): 0.5 µg/mL
MIC (Klebsiella pneumoniae [41]): 2 µg/mL (≈ 4.5 µM)
MIC (Klebsiella aerogenes [42]): 16 µg/mL
MIC (Klebsiella aerogenes [43]): 8 µg/mL
MIC (Klebsiella pneumoniae [44]): 128 µg/mL
MIC (Klebsiella aerogenes [45]): 4 µg/mL
MIC (Klebsiella pneumoniae [46]): 8 µg/mL (≈ 18 µM)
MIC (Klebsiella aerogenes [47]): 4 µg/mL
MIC (Klebsiella pneumoniae [48]): 2 µg/mL (≈ 4.5 µM)
